Test [1] relates to Arc protein in DIV14 forebrain neurons. The experiment in a line: Western blot of Arc protein in cultured forebrain neurons. In kind it is cell-based, mouse. Conditions: for level of Arc protein, low dose cycloheximide: 10 min. On the procedure: For biochemistry experiments, 0.4×10^6 neurons were added to each well of a 6-well plate (Coming) coated with poly-L-lysine. Growth medium consisted of NeuroBasal (Invitrogen) supplemented with 1% fetal bovine serum (Hyclone), 2% B27, 1% Glutamax (Invitrogen), 100 U/mL penicillin, and 100 U/mL streptomycin (Invitrogen). Neurons were fed twice per week with glia conditioned growth medium.
Transfected HEK293T cells or cultured neurons were treated with various drugs and then harvested in IP buffer supplemented with 1% Triton X-100 buffer and Complete™ EDTA-Free protease inhibitors. Soluble fractions were diluted with 4× SDS sample buffer.
The membrane was blocked with TBST (50 mM Tris, pH 7.5, with 150 mM NaCl, and 0.1% Tween-20) containing 5% non-fat milk for one hour at room temperature, followed by incubation with primary antibody in TBST buffer overnight at 4° C. After three washes with TBST buffer, membranes were incubated with HRP-conjugated anti-rabbit, or anti-mouse antibody in TBST for another hour. After three washes with TBST buffer, the membrane was treated with SuperSignal ECL substrate (Pierce) according to the manufacturer's protocol.
To reduce the background signal in the co-IP assay, HRP-conjugated HA or HPR conjugated myc antibody (Santa Cruz) was used when overexpressed proteins were tagged with HA or myc. […] Image J software (NIH) was used for quantification.
For orientation: Immunoblotting shows a protein as a band on a membrane.

Test [2] concerns global protein synthesis in cultured neurons. Put plainly: Metabolic labeling, incorporation of 35S methionine and cysteine into TCA precipitant. In kind it is cell-based. Conditions: 100 nM cycloheximide. On the procedure: To measure the incorporation of ^35S methionine and cysteine into new peptide, 30 μl protein labeling mix (Perkin Elmer) was added into 1.5 ml of regular culture medium (final 220 μCi/ml) for the time indicated in the figures. After washout once with ice-cold PBS, cells were lysed with 700 μl of RIPA buffer. After quantification of total amount of protein, equal amount of lysate (˜200 μl) was precipitated with 10% TCA.

Test [3] relates to hippocampal Schaffer collateral-CA1 synapses. Put plainly: Field recording of fEPSP (mGluR-LTD) in acute hippocampal slices. Type of test: cell-based, mouse. As to conditions: for DHPG-LTD in the presence of high dose cycloheximide: cycloheximide 60 μM, t=105 min. On the procedure:
For recording, slices were placed in a submersion recording chamber and perfused with 30° C. ACSF at a rate of 2 ml/min.
fEPSPs were recorded with extracellular recording electrodes (1.0 MΩ) filled with ACSF and placed in the stratum radiatum of area CA1. Synaptic responses were evoked by a 200-μsec current pulse to Schaffer collateral axons with a concentric bipolar tungsten stimulating electrode. Stable baseline responses were collected every 30 sec by using a stimulation intensity (10-30 μA) yielding 50-60% of the maximal fEPSP slope response.
mGluR-LTD was induced by a mGluR1/5 agonist, (R,S)-3,5-DHPG (Tocris), or by electrical stimulations. […] NMDAR dependent-LTD was induced by using 900 single pulses delivered at 1 Hz.

The test system of test [4] is surface AMPA receptor (GluR2/3, GluR1) in cultured neurons. Put plainly: Surface biotinylation assay of AMPA receptor subunits. Type of test: cell-based, mouse. On the procedure:
For surface biotinylation, drug-treated cortical neurons were cooled on ice, washed twice with ice-cold PBS++ (1× PBS, 1 mM CaCl2, 0.5 mM MgCl2) and then incubated with PBS++ containing 1 mg/ml Sulfo-NHS-SSBiotin (Pierce) for 30 min at 4° C. Unreacted biotin was quenched by washing cells three times with PBS++ containing 100 mM Glycine (pH 7.4) (briefly once and for 5 min twice). Cultures were harvested in RIPA buffer and sonicated. Homogenates were centrifuged at […] for 20 min at 4° C. Fifteen % of supernatant was saved as the total protein. […] Precipitates were washed with RIPA buffer three times (5 min each time). All procedures were done at 4° C.

The test system of test [5] is Arc protein in DIV14 hippocampal neurons. The experiment in a line: Arc immunocytochemistry in cultured hippocampal neurons. Conditions: emetine 10 ng/ml, 10 min. In kind it is cell-based, mouse. On the procedure:
Immunocytochemistry of cultured neurons was performed as described (Shepherd et al., Neuron, 52, 475-484 (2006)). Briefly, DIV14 primary hippocampal neurons were fixed in fixation solution (4% paraformaldehyde, 4% sucrose containing 1× PBS) for 20 min at 4° C. and were permeabilized with 0.2% Triton X-100 in PBS for 10 min 4° C. Cells were then blocked for 1 hr at room temperature in 10% normal goat serum (NGS). Primary antibodies were diluted (1:250 of phospho-eEF2 antibody, 1:500 of PSD95, 1:300 for Arc) in 10% NGS and incubated with neurons for overnight at 4° C. Alexa 488, or Alexa 555-conjugated secondary antibodies (1:500; Molecular Probes) were diluted in 10% NGS and incubated at room temperature for 1 hr. Coverslips were mounted with PermaFluor containing DAPI (Invitrogen). All images were taken with same exposure and setting using Zeiss 510 Meta confocal microscope. Quantification of Arc levels was carried out using Image J software. For the measurement of dendritic Arc levels, average pixel intensity was measured in the primary dendrites 20 μm away from the soma.

Several values for one entry are separate records, joined by “and”; a condition that tells them apart may be missing. Equal values may be shown once. Entries after “also recorded” stand apart in the source; their conditions may differ. *1 amine or outer side, *2 acyl side, *3 side chain or, on linkers, in order; H or OH if unused. Where a SMILES comes first, the peptide text is derived from it. Bridges are numbered along the chain shown (N, C = ends). Roman numbers before positions name the chains, in order. [ ]: non-standard residue; d: D form. The star is where a group is joined. Actinocin(9to1) = Cc1c2oc3c(C)ccc(C(=O)[*:1])c3nc-2c(C(=O)[*:2])c(N)c1=O; NMeV = CN[C@H](C(=O)O)C(C)C; Cbz = O=C(OCc1ccccc1)*; Sar = CNCC(=O)O

Turning to `C[C@@H]1C[C@@H]([C@H](O)CC2CC(=O)NC(=O)C2)C(=O)[C@@H](C)C1` [cycloheximide], the “effect on induction of Arc protein by DHPG (5 min)” value in test [1] is “blocked”. Also, the “induction of Arc, high dose cycloheximide” value in test [1] (>1 uM, WT and eEF2K KO neurons) is listed as “did not induce Arc”. Also, the “level of Arc protein, low dose cycloheximide” value in test [1] (WT neurons, low dose (50-100 nM)) is “increased Arc protein”; in test [1] (WT neurons, low dose (50-100 nM), listed as CHX), “increased the level of Arc protein”; in test [1] (eEF2K KO neurons, 50 nM and 100 nM) it was “increased the level of Arc protein”. Besides, the “total incorporation of 35S labeled methionine and cysteine into TCA precipitant” value in test [2] was around 60%. Besides, in test [3], the “fEPSP slope, low dose cycloheximide + DHPG” value was 75.7±7.4 % of baseline and 69.0±2.6 % of baseline. In addition, the “DHPG-LTD in the presence of high dose cycloheximide” value in test [3] (Fmr1 KO slices) is 72.3±4.8 % of baseline; in test [3] (WT (FVB) slices), 95.5±2.9 % of baseline. For the same molecule, the “baseline synaptic transmission, low dose cycloheximide without mGluR stimulation” value is reported as 101.2±2.0% in test [3] (WT slices) and 100.4±4.6% in test [3] (eEF2K KO slices).

With `Cc1c2oc3c(C)ccc(C(=O)N[C@@H]4C(=O)N[C@H](C(C)C)C(=O)N5CCC[C@H]5C(=O)N(C)CC(=O)N(C)[C@@H](C(C)C)C(=O)O[C@@H]4C)c3nc-2c(C(=O)N[C@@H]2C(=O)N[C@H](C(C)C)C(=O)N3CCC[C@H]3C(=O)N(C)CC(=O)N(C)[C@@H](C(C)C)C(=O)O[C@@H]2C)c(N)c1=O` [Actinomycin D] (I: T[dV]P[Sar][NMeV] / II: T[dV]P[Sar][NMeV]; ester I:1-I:C, II:1-II:C; linker I:N-II:N via Actinocin(9to1)), the “effect on induction of Arc protein by DHPG (5 min)” value in test [1] is “did not alter; also recorded: did not block”. Further, the “basal levels of Arc with transcription inhibitor” value in test [1] (ActD 10 μM, 1 hr) is “decreased the basal levels of Arc”.

With `NC1=N[C@H](O)[C@H]2[C@H]3O[C@]4(O)O[C@@H]([C@@H](O)[C@@]2(N1)[C@@H]4O)[C@]3(O)CO` [TTX, tetrodotoxin], the “surface expression of GluR1” value in test [4] was “increased the surface expression of GluR1”.

For the molecule `CC(C)C[C@@H](C=O)NC(=O)[C@H](CC(C)C)NC(=O)[C@H](CC(C)C)NC(=O)OCc1ccccc1` [MG132] (Cbz-Leu-Leu-Leu-aldehyde), the “level of Arc protein with proteasome inhibitor” value in test [1] (MG132 10 μM, 1 hr) is “increased the basal level of Arc protein; also recorded: increased the levels of Arc”.

In the case of `CC[C@H]1CN2CCc3cc(OC)c(OC)cc3[C@@H]2C[C@@H]1C[C@H]1NCCc2cc(OC)c(OC)cc21` [emetine], the “effect on rapid DHPG-induced increase of Arc (immunocytochemistry)” value in test [5] is reported as “blocked”.

The values are drawn from patent US20110183942A1, “Methods and Compositions for Treating Alzheimer's Disease” (UNIVERSITY OF MEDICINE AND DENTISTRY OF NEW JERSEY, priority 2008, published 2011).
